Results as given in patent publication US7772241B2, “Variolin derivatives and their use as antitumor agents” (Pharma Mar S.A., priority 2001, dated 2010).

Columns and labels:
[1] = test system: PANC-1; assay: Inhibition of cells growth by colorimetric (SRB) assay, PANC-1; conditions: for GI50 / CC50: Homo sapiens, PANC-1, 48 h; for GI50: read-out: GI50 PANC-1, SRB assay, 48 hours exposure; for CC50: read-out: LC50 PANC-1, SRB assay, 48 hours exposure; for TGI PANC-1: SRB assay, 48 hours exposure
In short: (§1)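 Human tumour cells in RPMI 1640 with 10% FBS were seeded at 5×10^3 cells/well, allowed to attach for 18 h, then exposed to samples at 10 to 10^−8 μg/ml for 48 h. Growth was measured by SRB staining after TCA fixation, with absorbance read at 490 nm in triplicate wells.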

[2] = test system: A-549; assay: Inhibition of cells growth by colorimetric (SRB) assay, A-549; conditions: for GI50 / CC50: Homo sapiens, A549, 48 h; for GI50: read-out: GI50 A-549, SRB assay, 48 hours exposure; for CC50: read-out: LC50 A-549, SRB assay, 48 hours exposure; for TGI A-549: SRB assay, 48 hours exposure
In short: as §1

[3] = test system: DU-145; assay: Inhibition of cells growth by colorimetric (SRB) assay, DU-145; conditions: for GI50 / CC50: Homo sapiens, DU-145, 48 h; for GI50: read-out: GI50 DU-145, SRB assay, 48 hours exposure; for CC50: read-out: LC50 DU-145, SRB assay, 48 hours exposure; for TGI DU-145: SRB assay, 48 hours exposure
In short: as §1

[4] = test system: SK-MEL-28; assay: Inhibition of cells growth by colorimetric (SRB) assay, SK-MEL-28; conditions: for GI50 / CC50: Homo sapiens, SK-MEL-28, 48 h; for GI50: read-out: GI50 MEL-28, SRB assay, 48 hours exposure; for CC50: read-out: LC50 MEL-28, SRB assay, 48 hours exposure; for TGI MEL-28: SRB assay, 48 hours exposure
In short: as §1

[5] = test system: LoVo-Dox; assay: Inhibition of cells growth by colorimetric (SRB) assay, LoVo-Dox; conditions: for GI50 / CC50: Homo sapiens, 48 h; for GI50: read-out: GI50 LOVO-DOX, SRB assay, 48 hours exposure; for CC50: read-out: LC50 LOVO-DOX, SRB assay, 48 hours exposure; for TGI LOVO-DOX: SRB assay, 48 hours exposure
In short: as §1

[6] = test system: LoVo; assay: Inhibition of cells growth by colorimetric (SRB) assay, LoVo; conditions: for GI50 / CC50: Homo sapiens, LoVo, 48 h; for GI50: read-out: GI50 LOVO, SRB assay, 48 hours exposure; for CC50: read-out: LC50 LOVO, SRB assay, 48 hours exposure; for TGI LOVO: SRB assay, 48 hours exposure
In short: as §1

[7] = test system: HT-29; assay: Inhibition of cells growth by colorimetric (SRB) assay, HT-29; conditions: for GI50 / CC50: Homo sapiens, HT-29, 48 h; for GI50: read-out: GI50 HT-29, SRB assay, 48 hours exposure; for CC50: read-out: LC50 HT-29, SRB assay, 48 hours exposure; for TGI HT-29: SRB assay, 48 hours exposure
In short: as §1

[8] = test system: SK-OV-3; assay: Inhibition of cells growth by colorimetric (SRB) assay, SK-OV-3; conditions: for GI50 / CC50: Homo sapiens, SK-OV-3, 48 h; for GI50: read-out: GI50 SKOV-3, SRB assay, 48 hours exposure; for CC50: read-out: LC50 SKOV-3, SRB assay, 48 hours exposure; for TGI SKOV-3: SRB assay, 48 hours exposure
In short: as §1

[9] = test system: K-562; assay: Inhibition of cells growth by colorimetric (SRB) assay, K-562; conditions: for GI50 / CC50: Homo sapiens, K562, 48 h; for GI50: read-out: GI50 K-562, SRB assay, 48 hours exposure; for CC50: read-out: LC50 K-562, SRB assay, 48 hours exposure; for TGI K-562: SRB assay, 48 hours exposure
In short: as §1

[10] = test system: LNCaP; assay: Inhibition of cells growth by colorimetric (SRB) assay, LNCaP; conditions: for GI50 / CC50: Homo sapiens, LNCaP, 48 h; for GI50: read-out: GI50 LN-caP, SRB assay, 48 hours exposure; for CC50: read-out: LC50 LN-caP, SRB assay, 48 hours exposure; for TGI LN-caP: SRB assay, 48 hours exposure
In short: as §1

[11] = test system: IGROV-1; assay: Inhibition of cells growth by colorimetric (SRB) assay, IGROV-1; conditions: for GI50 / CC50: Homo sapiens, IGROV-1, 48 h; for GI50: read-out: GI50 IGROV, SRB assay, 48 hours exposure; for CC50: read-out: LC50 IGROV, SRB assay, 48 hours exposure; for TGI IGROV: SRB assay, 48 hours exposure
In short: as §1

[12] = test system: SK-BR-3; assay: Inhibition of cells growth by colorimetric (SRB) assay, SK-BR-3; conditions: for GI50 / CC50: Homo sapiens, SK-BR-3, 48 h; for GI50: read-out: GI50 SK-BR-3, SRB assay, 48 hours exposure; for CC50: read-out: LC50 SK-BR-3, SRB assay, 48 hours exposure; for TGI SK-BR-3: SRB assay, 48 hours exposure
In short: as §1

[13] = test system: IGROV-ET; assay: Inhibition of cells growth by colorimetric (SRB) assay, IGROV-ET; conditions: for GI50 / CC50: Homo sapiens, 48 h; for GI50: read-out: GI50 IGROV-ET, SRB assay, 48 hours exposure; for CC50: read-out: LC50 IGROV-ET, SRB assay, 48 hours exposure; for TGI IGROV-ET: SRB assay, 48 hours exposure
In short: as §1

[14] = Inhibition of cells growth by colorimetric (SRB) assay, HMEC1; conditions: human, HMEC1 cells, LC50 H-MEC-1, SRB assay, 48 hours exposure
[15] = test system: HMEC1; assay: as above; conditions: for GI50: Homo sapiens, HMEC-1, 48 h, read-out: GI50 H-MEC-1, SRB assay, 48 hours exposure; for TGI H-MEC-1: SRB assay, 48 hours exposure, in M (unit assumed)

C[S+]([O-])c1nccc(-c2c3c(Cl)ccnc3n3c(N)nccc23)n1 (stereo not drawn) [Compound 110]
GI50 [1]: 14.5 µM | CC50 [1]: ≥ 27.9 µM | TGI PANC-1 [1]: 2.79E−05 | GI50 [2]: 11 µM | CC50 [2]: ≥ 27.9 µM | TGI A-549 [2]: 2.79E−05 | GI50 [3]: 2030 nM | CC50 [3]: ≥ 27.9 µM | TGI DU-145 [3]: 8.97E−06 | GI50 [4]: 5.55 µM | CC50 [4]: ≥ 27.9 µM | TGI MEL-28 [4]: 2.79E−05 | GI50 [5]: 2040 nM | CC50 [5]: ≥ 27.9 µM | TGI LOVO-DOX [5]: 1.21E−05 | GI50 [6]: 1380 nM | CC50 [6]: ≥ 27.9 µM | TGI LOVO [6]: 6.21E−06 | GI50 [7]: 4.15 µM | CC50 [7]: ≥ 27.9 µM | TGI HT-29 [7]: 2.79E−05 | GI50 [8]: 11.9 µM | CC50 [8]: ≥ 27.9 µM | TGI SKOV-3 [8]: 2.79E−05 | GI50 [9]: 9.92 µM | CC50 [9]: ≥ 27.9 µM | TGI K-562 [9]: 2.79E−05 | GI50 [10]: 1450 nM | CC50 [10]: 16.7 µM | TGI LN-caP [10]: 4.71E−06 | GI50 [11]: 14.3 µM | CC50 [11]: ≥ 27.9 µM | TGI IGROV [11]: 2.79E−05 | GI50 [12]: 920 nM | CC50 [12]: 11.6 µM | TGI SK-BR-3 [12]: 1.98E−06 | GI50 [13]: 10.9 µM | CC50 [13]: ≥ 27.9 µM | TGI IGROV-ET [13]: 2.79E−05 | CC50 at 48 h [14]: ≥ 27900 nM | GI50 [15]: 1700 nM | TGI H-MEC-1 [15]: 1.08E−05

CS(=O)(=O)c1nccc(-c2c3c(Cl)ccnc3n3c(N)nccc23)n1 [Compound 111]
GI50 [1]: 3.07 µM | CC50 [1]: 24.6 µM | TGI PANC-1 [1]: 8.70E−06 | GI50 [2]: 4.35 µM | CC50 [2]: 26.7 µM | TGI A-549 [2]: 1.30E−05 | GI50 [3]: 1940 nM | CC50 [3]: 16.8 µM | TGI DU-145 [3]: 6.40E−06 | GI50 [4]: 1.25 µM | CC50 [4]: 15.7 µM | TGI MEL-28 [4]: 5.15E−06 | GI50 [5]: 1510 nM | CC50 [5]: 26.7 µM | TGI LOVO-DOX [5]: 7.07E−06 | GI50 [6]: 1540 nM | CC50 [6]: 26.7 µM | TGI LOVO [6]: 6.99E−06 | GI50 [7]: 5.34 µM | CC50 [7]: 26.7 µM | TGI HT-29 [7]: 1.66E−05 | GI50 [8]: 2.05 µM | CC50 [8]: 21.8 µM | TGI SKOV-3 [8]: 6.88E−06 | GI50 [9]: 7.26 µM | CC50 [9]: 26.7 µM | TGI K-562 [9]: 1.59E−05 | GI50 [10]: 4300 nM | CC50 [10]: 19.9 µM | TGI LN-caP [10]: 9.26E−06 | GI50 [11]: 3.55 µM | CC50 [11]: 25.9 µM | TGI IGROV [11]: 9.60E−06 | GI50 [12]: 4350 nM | CC50 [12]: 21.3 µM | TGI SK-BR-3 [12]: 9.69E−06 | GI50 [13]: 3.87 µM | CC50 [13]: 26.7 µM | TGI IGROV-ET [13]: 1.10E−05 | CC50 at 48 h [14]: 603 nM | GI50 [15]: 1.08 nM | TGI H-MEC-1 [15]: 1.53E−08
